Like-named read-outs stand apart in the source and are kept apart here.
How the values were obtained:
[1] = Release profile from hydrogel-filled MNAs; assay type: physicochemical; conditions: three concentrations, 3 mm and 2 mm MNAs, 72 hrs in PBS
Method: MNAs were filled with this BSA-containing alginate solution and Calcium Chloride (CaCl2) used for crosslinking following this protocol: first placing MNAs in 3% (w/v) agarose gel containing 2% (v/v) CaCl2 for few minutes and then pipetting additional 2% (v/v) CaCl2 over the tops to ensure complete crosslinking.
To perform a 3-day long release study, each needle array was placed in 0.5 mL of PBS. Samples were taken from solution at each time point over the course of 72 hrs and were stored in micro vials at room temperature over the duration of the release. For the final evaluation of protein release, 150 μL of each sample added to 96 well plates mixed with 150 μL of working reagent. Working reagent solution was made from a mixture of reagent A, B and C of BCA protein kit with the ratio of 24:24:1. Once reagents and samples were mixed, plates were incubated at 37° C. for an hour, and a plate reader (BioTech) used to read the absorption. Absorption values from the plate reader converted to concentrations using a calibration curve.
After filling the MNAs with the solution, PEGDA was photocrosslinked for approximately 30 seconds using a handheld UV light. A similar experimental protocol followed to study protein release from PEGDA over the course of 72 hours.

[2] = topical delivery; 100 μL of 5 mg/mL; 3% agarose; 30 min
From the text: Agarose and other agar-based hydrogels have been widely used as skin models in previous studies^37,38. […] The intensity is also plotted quantitatively against the depth of penetration (FIG. 15C).

[3] = system: full thickness skin wounds of diabetic (Lepr^db) mice
Method: To further investigate the potential benefits of MNAs in treatment of diabetic and chronic wounds, an animal study was conducted on diabetic mice with cutaneous wounds. Homozygous mice for the diabetes spontaneous mutation (Lepr^db) become identifiably obese around 3 to 4 weeks of age. On day 10 to 14 elevations of plasma insulin begin and at four to eight weeks the blood sugar level elevates. With a delayed wound healing and an increased metabolic efficiency this mouse strain serves as a suitable model for chronic wound research.
On day one, all the mice received a square shaped 1 cm×1 cm full thickness skin cut on their dorsum. The animals were kept untreated for 5 days to allow the formation of wound crust. On days 5 and 7 post-surgery, animals received the planned treatment. T weight of each animal was recorded periodically, and wound areas were assessed every two days and photographed to monitor investigate wound closure (FIG. 5A).
Animal Studies: All animal procedures were reviewed and approved by the Institutional Animal Care and Use Committee (IACUC) of the University of Nebraska, Lincoln. Five weeks old B6.BKS(D)-Lepr^db/J mice were purchased from the Jackson Laboratory (Bar Harbor, Me.) weighted between 34-43 grams and accommodated in University of Nebraska, Life Science, animal facility for one week before the wound injury procedure. The animals were on special food diet during the entire research period.
In the day 1, all animals were anesthetized by 5% of isoflurane using anesthesia system, (VetFlo, Kent Scientific, Torrington, Conn.) via a nose cone. The hair on the dorsal region of animals was shaved using an electric razor. The skin was sterilized, and a full thickness skin cut of 1 cm×1 cm was created. The wounds were covered with a regular bandage. All mice placed back in separate cages individually after recovering from anesthesia. Animals were monitored for wound condition, vitals and wellbeing, and weight gain/loss trends daily.
To simulate the real wound conditions covered by crust and necrotic tissues, treatment start points were on day 5 by which a complete crust was formed on the wounds. […] In the topical delivery group, 100 μl of the solution was poured topically using a pipette on the top of the wound and the animals were let to sit for about 10 minutes, the wound was then covered by a fresh dressing. In MNAs delivery group, 100 μl of the solution was delivered using the MNAs and after 10 min, the microneedles were removed and the wound was covered by a fresh dressing. Animals of negative control received no treatment. […] Wounds were inspected every 2 days and the bandage was changed and a picture of the wound was taken using a digital camera.
On day 19, all animals were sacrificed using 20% CO2 volume displacement (flow rate cage volume/per minute) poisoning overdose and wound tissue was harvested and fixed in using 4% paraformaldehyde (PFA).
Histology: Frozen sections of haired skin were stored in a −80° C. ultralow freezer prior to sectioning on a cryotome. The sections of skin were cut 10 μm thick using a Thermo Scientific CryoStar NX50, routinely stained with hematoxylin and eosin on a Leica ST5020 H&E stainer, and coverslipped with a Leica CV5030 coverslipper. A veterinary anatomic pathologist who is board certified by the American College of Veterinary Pathologists performed all histological evaluations. Immunohistochemistry was done manually using Anti-CD31, rabbit host species (ab28364, Abcam, MA, USA).

[4] = system: full-thickness skin wounds of diabetic (Lepr^db) mice; conditions: for average healing rate: 100 μL of 500 ng/mL on days 5 and 7; for histological features at the central region of the wounds (H&E): day 19
From the text: On the day of surgery, mice received a full thickness (1×1 cm^2) skin wound on their dorsum. Mice with the full thickness (1×1 cm^2) wound on their dorsum were kept untreated for 5 days to allow eschar formation. Animals received treatment via three different delivery methods on days 5 and 7 post-surgery. […] Similar to in vitro experiments, to minimize the potential injury upon the delivery of therapeutics intradermally using LJI, a layer of agarose was placed between the wound and the nozzle.
Small Animal studies: Murine animal procedures were approved by the Institutional Animal Care and Use Committee (IACUC) of the University of Nebraska, Lincoln. Six to seven weeks old B6.BKS(D)-Lepr^db/J mice were obtained from the Jackson Laboratory (Bar Harbor, Me.). Since this mouse strain had congenic obesity, the animals were put on a special food diet. […] On day 0 of the study, 5% isoflurane was provided via a nose cone for anesthetization of animals and 3% isoflurane was used for maintaining sedation. The hair on the dorsal area was shaved, the skin was sterilized, and a full-thickness skin cut of 1 cm×1 cm was created. Buprenorphine SR was administered for pain relief at the time of surgery.
Animals received treatments on day 5 and day 7 post-surgery. […] To minimize the potential damage of solutions delivered by LJI to mice, an approximately 9 mm thick layer of 5% (w/v) of agarose was placed between the LJI nozzle and animal skin (FIG. 21).
Animals were inspected daily for wound closure, weight change and vitals. All animals were sacrificed on day 19 post-surgery using CO2 asphyxiation using a 30% oxygen displacement rate. The wound tissue was harvested and fixed in 10% neutral buffered formalin for further histological study.
Histological analysis: Sections of harvested skin were fixed by immersion in 10% neutral buffered formalin and routinely processed on a Tissue-Tek VIP 5 Tissue Processor. After processing, the tissues were embedded in paraffin blocks and were sectioned at 4 μm thick on a HM 355S Thermo Scientific microtome. Slides were deparaffinized and stained with H&E using a Leica ST5020 H&E stainer. Histological evaluation was conducted by a board certified veterinary anatomic blinded to the experiment.
Immunohistochemistry staining: In the murine study, formalin-fixed and paraffin-embedded biopsies were cut into 7 μm thick samples. Slides were deparaffinized, hydrated and washed using xylene and ethanol solutions. Subsequently, a heat mediated antigen retrieval step was performed at 95° C. for […]. The sections were blocked using 2.5% normal horse serum for 30 min at room temperature, and incubated with primary antibody (anti-CD31) at 4° C. overnight. Tissue sections were then treated with 3% hydrogen peroxide for 10 minutes at room temperature to block the peroxidase activity. Secondary antibody was then applied for 30 minutes at room temperature. To form a colored precipitate, DAB solution was incubated on the slides for 3-5 minutes. Finally, counterstaining was performed using hematoxylin for 30 seconds, and sections were dehydrated, washed, covered with mounting solution, and cover slipped.

[5] = system: full-thickness wounds on the dorsum of Yorkshire pigs; conditions: day 14
Method: To serve as controls, a group of wounds was treated with PBS for evaluating the potential effects of MNA administration, and a group was left untreated.
Large animal studies: The procedures for porcine animal studies were performed at Toxikon Corporation (Bedford, Mass.). The study protocol was approved by Toxikon's Institutional Animal Care and Use Committee, and conformed to federal animal laws and regulations. Three Yorkshire pigs (Animal Biotech Industries, Danboro, Pa.), 70-80 kg each, were anesthetized by intramuscular administration of 3.3 mg/kg ketamine, 2.2 mg/kg xylazine, 1.1 mg/kg acepromazine, and 0.02 mg/kg atropine. 0-5% isoflurane and oxygen were provided to maintain general anesthesia. Pain management was achieved by administration of a transdermal patch releasing 2-3 mkg/kg/h fentanyl per hour for 72 hours (Duragesic, Janssen). In addition, buprenorphine 0.01-0.03 mg/kg was delivered intramuscularly at the end of the surgery.
Circular full-thickness wounds (d=2.5 cm) were created on the dorsum of each pig. After marking the wounds in parallel paraspinal stripes, the outlines were tattooed with red ink using an electric tattoo marker (Spaulding & Rogers Mfg., Inc., Voorheesville, N.Y.). Full-thickness wounds down to fascia were excised. […]
For macroscopic wound evaluation, wound contraction was measured of the tattooed margins from macroscopic wound photos using Image J software (NIH, Bethesda, Md.). Open wound area (S1) and the area inside tattooed margin (S2) were measured and compared with original wound size on day 0 (S0=5 cm^2). The wound contraction and non-contracted wound closure contributions were calculated as 100×(S2−S0)/S0 and 100×(S2−S1)/S0, respectively.
In the swine experiment, the wounds were excised using a scalpel and fixed in formalin for immunohistochemical analysis. […] The wound sections were immunostained for von Willebrand Factor (vWF), smooth muscle actin (SMA), and CD3 based on manufacturers' protocols and the amount of positive staining was quantified in a blinded-manner using a light microscope.

HUVECs = conditions: VEGF equivalent to 50 ng/mL through MNAs
Method: To develop a method for mimicking the crust and necrotic tissue covering chronic wounds, 12-well cell culture inserts were used and covered with […] of 3% (w/v) agarose solution […]. […] Similar techniques were applied for scratch assay with seeding HUVECs in the bottom of chamber covered by 2 mL basal media.
To assess the effectiveness of the released factors, a standard scratch assay was conducted. Wells of a 12-well plate were coated by Geltrex. After aspirating the Geltrex from the wells, 30,000 cells per well were seeded and cultured until a confluent monolayer formed in each well. The cells were cultured in basal media supplemented with 2% FBS for 6 hours. prior to the experiments. On the day of experiments, an approximately 200 μm wide scratch was formed using a 200 μL micropipette tip. […] Fixed points of each well (two points per well) were imaged using a Nikon Ti inverted microscope after 0, 2, and 4 hours after each treatment application. A total of 4 samples per condition was tested.

For CCN(CC)c1ccc2c(-c3ccccc3C(=O)O)c3ccc(=[N+](CC)CC)cc-3oc2c1.[Cl-] [rhodamine B], the “release profile from alginate-filled MNAs” value [1] was “curved burst release over the first 6 hours, with slower, more linear release over the next 3 days” and the “depth after which dye intensity promptly decreased” value [2] was ~1 mm.
With “vascular endothelial growth factor [VEGF]” the “wound closure / healing rate” value ([3]; MNA delivery, 100 μL of 500 ng/mL on days 5 and 7, day 19) was 95%, the “wound closure compared with other groups” value ([3]; MNA delivery, day 17 and 19) was “significantly faster than both topical delivery and negative control groups” and the average wound size ([3]; MNA delivery, day 19) was 0.04 cm^2. The scarring ([3]; MNA delivery, end of the experiments) was “no evidence of scaring was observed”, the “hair growth in the wound area” value ([3]; topical delivery) was “no hair growth was observed” and the “wound closure rate compared to negative control” value ([3]; topical delivery) was “No significant difference was observed in the wound closure rate”. The average healing rate ([4]; LJI delivery, end of the study) was 81%, the average healing rate ([4]; MNA delivery, end of the study) was 96% and the average wound size ([4]; MNA delivery, end of the study) was 0.04 cm^2. The “histological features at the central region of the wounds (H&E)” value ([4]; TOP-administrated) was “contained a bed of granulation tissue with a partially healed center”, the “histological features at the central region of the wounds (H&E)” value ([4]; intradermal delivery (MNA, LJI)) was “more advanced wound healing characteristics” and the “vascularization, IHC staining against CD31” value ([4]; intradermal delivery vs topical and controls, 19 days post-injury) was “Superior vascularization”. The overall healing ([4]; intradermal delivery vs topical delivery and controls, 19 days after surgery) was “improved healing”, the wound closure ([4]; topical delivery, end of the 20-day study) was “about 66%” and the “wound closure rate compared to negative control groups” value ([4]; topical delivery, vs no treatment or PBS via MNA and LJI) was “No significant difference was observed in the wound closure rate”. The “expression of SMA+ myofibroblasts (IHC)” value ([5]; VEGF delivery) was “decreased the expression of SMA+ myofibroblasts”, the “vascularization (vWF expression)” value ([5]; intradermal (MNA) delivery) was “a significant enhancement in vascularization” and the “vascularization (vWF expression)” value ([5]; topical delivery) was “clearly less effective in inducing vascularization”. The migration rate (HUVECs) was “comparable to the positive control group” and the scratch closure (HUVECs; in 4 hours) was 100%.

Reference: patent publication US20220273926A1, “DRUG DELIVERY USING MICRONEEDLE ARRAYS” (BOARD OF REGENTS OF THE UNIVERSITY OF NEBRASKA, priority 2019, published 2022)
